Measured values published in ChEMBL document CHEMBL1287693, “Selective accumulation of a novel antimalarial rhodacyanine derivative, SSJ-127, in an organelle of Plasmodium berghei” (Bioorg Med Chem, 2010).
Active and inactive are the calls of the source. No cut-off for these calls is given here.

Key:
[1] = test system: Plasmodium berghei; test: Drug uptake in ring stage of Plasmodium berghei NK65 infected in ICR mice (Mus musculus) RBCs at 10 nM after 20 min using Rhodamine 123 by fluorescence microscopy; format: ADME, organism-based; details: in vivo, 0.01 µM
[2] = test system: Plasmodium berghei; test: Drug uptake in early trophozoite stage of Plasmodium berghei NK65 infected in ICR mice (Mus musculus) RBCs at 10 nM after 20 min using Rhodamine 123 by fluorescence microscopy; format: ADME, organism-based; details: in vivo, 0.01 µM
[3] = test system: Plasmodium berghei; test: Drug uptake in late trophozoite stage of Plasmodium berghei NK65 infected in ICR mice (Mus musculus) RBCs at 10 nM after 20 min using Rhodamine 123 by fluorescence microscopy; format: ADME, organism-based; details: in vivo, 0.01 µM
[4] = test system: Plasmodium berghei; test: Drug uptake in schizont stage of Plasmodium berghei NK65 infected in ICR mice (Mus musculus) RBCs at 10 nM after 20 min using Rhodamine 123 by fluorescence microscopy; format: ADME, organism-based; details: in vivo, 0.01 µM
[5] = test system: Plasmodium berghei; test: Antimalarial activity against Plasmodium berghei NK65 infected in mice (Mus musculus) assessed as reduction of parasitaemia at 40 mg/kg, subcutaneous daily for 3 days; format: functional; set-up: scale not given: the % may be the effect or the level left
[6] = test system: Plasmodium berghei; test: Antimalarial activity against Plasmodium berghei NK65 infected in mice (Mus musculus) assessed as increase of mice (Mus musculus) survival days at 40 mg/kg, subcutaneous daily for 3 days measured up to 18 months; format: functional, organism-based; set-up: dose 40 mg/kg
[7] = test system: Mus musculus; test: Drug uptake in Plasmodium berghei NK65 infected ICR mice (Mus musculus) RBCs at 40 mg/kg, subcutaneously qd for 3 days after 23 hrs; format: ADME, organism-based; set-up: dose 40 mg/kg, route subcutaneous; details: in vivo, sc
[8] = test system: Plasmodium berghei; test: Antimalarial activity against Plasmodium berghei NK65 infected in mice (Mus musculus) assessed as reduction of parasitaemia at 40 mg/kg, subcutaneous after 23 hrs (reference value: 8.2 to 25.3 %); format: functional; set-up: scale not given: the % may be the effect or the level left
[9] = test system: Plasmodium berghei; test: Effect on multidrug resistance protein-mediated Rhodamine 123 drug uptake in blood stage of Plasmodium berghei NK65 mitochondria infected ICR mice (Mus musculus) RBCs at 10 nM after 20 min by fluorescence microscopy
[10] = Drug uptake in blood stage of Plasmodium berghei NK65 infected ICR mice (Mus musculus) RBCs at 0.25 uM after 20 min using Rhodamine 123 by fluorescence microscopy; format: ADME, tissue-based; details: erythrocyte
[11] = Drug uptake in blood stage of Plasmodium berghei NK65 mitochondria infected ICR mice (Mus musculus) RBCs at 0.25 uM after 20 min using Rhodamine 123 by fluorescence microscopy; format: ADME
[12] = Drug uptake in blood stage of Plasmodium berghei NK65 nucleus infected ICR mice (Mus musculus) RBCs at 0.25 uM after 20 min using Rhodamine 123 by fluorescence microscopy; format: ADME, tissue-based
[13] = test system: Plasmodium berghei; test: Effect on multidrug resistance protein-mediated Rhodamine 123 drug uptake in blood stage of Plasmodium berghei NK65 mitochondria infected ICR mice (Mus musculus) RBCs at 10 uM after 20 min by fluorescence microscopy

Row | Structure (SMILES) | Drug uptake [1] | Drug uptake [2] | Drug uptake [3] | Drug uptake [4] | Activity [5] [%] | Activity [6] | Drug uptake [7] | Activity [8] [%] | Drug uptake [9] | Drug uptake [10] | Drug uptake [11] | Drug uptake [12] | Drug uptake [13]
1 | CCn1c(=O)/c(=C/C=c2\nc3c(o2)=CC=CN3C)s/c1=C\c1sc2ccccc2[n+]1C.[Cl-] | Active | Active | Active | Active | 100 | Active | Active | 10.8 | Active | Active | Active | Active | –
2 | CCCCCC[C@H]1C(=O)O[C@H](C)[C@H](NC(=O)c2cccc(NC=O)c2O)C(=O)O[C@@H](C)[C@@H]1OC(=O)CC(C)C | – | – | – | – | – | – | – | – | – | – | – | – | inactive
3 | N#CC(C#N)=NNc1cccc(Cl)c1 | – | – | – | – | – | – | – | – | – | – | – | – | inactive
